Reference: patent US20250134871A1, “UPR MODULATORS TO TREAT HEARING LOSS” (JACARANDA BIOSCIENCES, INC., priority 2021, published 2025)

Tested on: CHOP
Test: ER stress induction in HEK cells treated with compounds (CHOP mRNA, qPCR)
Format: cell-based
Settings: HEK 293 cells, 0.5 μM thapsigargin and 0.1 to 5.0 μM of each drug for 2 hours; CHOP mRNA by qPCR, ΔΔCt vs GAPDH
Method: HEK 293 cells were cultured in DMEM with 10% FBS, Pen/Strep in 5% CO2, at 37° C. in incubator. Cells were split and seeded at approximately 2×10^4 cells in each well of 96-well plate one day before treatment. Cells were grown in good shape and passaged one or two times before testing.
Cells were treated with 0.5 μM thapsigargin and 0.1 to 5.0 μM of each drug for 2 hours. The cells were then harvested, pelleted and treated to ready for testing mRNA abundance for specific UPR genes from cells in the PCR reaction using the TaqMan™ Gene Expression Cells-to-CT™ Kit (Thermo Fisher). Prescreened primers were ordered from Bio-Rad. The gene tested is CHOP, (the C/EBP Homologous Protein). These markers were compared against GAPDH. The qPCR system we used was CFX 384 Real time (Bio-Rad). Samples were measured in triplicates and relative quantification, by the ΔΔCt-method, using GAPDH as reference. The biological results are summarized in Table 1 where A represents a greater than 50% reduction in CHOP signal in compound-treated versus untreated cells, B represents a 20% to 50% reduction in CHOP signal, and C represents a 1% to 20% reduction in CHOP signal.

Row | SMILES | CHOP reduction
1 | O=C(COc1ccccc1)Nc1ccc(NC(=O)COc2ccccc2)cc1 [Compound A1, 2-Phenoxy-N-[4-(2-phenoxyacetylamino)phenyl]acetamide] | A (A represents a greater than 50% reduction in CHOP signal in compound-treated versus untreated cells)
2 | O=C(COc1ccc(Cl)cc1)Nc1ccc(NC(=O)COc2ccc(Cl)cc2)cc1 [Compound A2, 2-(4-Chlorophenoxy)-N-[4-[[2-(4-chlorophenoxy)acetyl]amino]phenyl]acetamide] | B (B represents a 20% to 50% reduction in CHOP signal)
3 | CC(C)(C)c1ccc(OCC(=O)Nc2ccc(NC(=O)COc3ccc(C(C)(C)C)cc3)cc2)cc1 [Compound A3, N,N′-Benzene-1,4-diylbis [2-(4-tert-butylphenoxy)acetamide]] | C (C represents a 1% to 20% reduction in CHOP signal)
4 | Cc1ccc(OCC(=O)Nc2ccc(NC(=O)COc3ccc(C)cc3)cc2)cc1 [Compound A4, N,N′-Benzene-1,4-diylbis [2-(4-methylphenoxy)acetamide]] | C (C represents a 1% to 20% reduction in CHOP signal)
5 | O=C(COc1ccccc1)Nc1ccc(NC(=O)COc2ccccc2)nc1 [Compound B1, 2-Phenoxy-N-[6-[[2-phenoxyacetyl]amino]pyridin-3-yl]acetamide] | C (C represents a 1% to 20% reduction in CHOP signal)
6 | O=C(COc1ccc(Cl)cc1)Nc1ccc(NC(=O)COc2ccc(Cl)cc2)nc1 [Compound B2, 2-(4-Chlorophenoxy)-N-[6-[[2-(4-chlorophenoxy)acetyl]amino]pyridin-3-yl]acetamide] | A (A represents a greater than 50% reduction in CHOP signal in compound-treated versus untreated cells)
7 | Cc1ccc(OCC(=O)Nc2ccc(NC(=O)COc3ccc(C)cc3)nc2)cc1 [Compound B3, 2-(4-Methylphenoxy)-N-[6-[[2-(4-methylphenoxy)acetyl]amino]pyridin-3-yl]acetamide] | B (B represents a 20% to 50% reduction in CHOP signal)
8 | O=C(COc1ccccc1)Nc1cnc(NC(=O)COc2ccccc2)c(Br)c1 [Compound B4, 2-Phenoxy-N-[5-bromo-6-[[2-phenoxyacetyl]amino]pyridin-3-yl]acetamide] | C (C represents a 1% to 20% reduction in CHOP signal)
9 | O=C(COc1ccc(Cl)cc1)Nc1cnc(NC(=O)COc2ccc(Cl)cc2)c(Br)c1 [Compound B5, 2-(4-Chlorophenoxy)-N-[5-bromo-6-[[2-(4-chlorophenoxy)acetyl]amino]pyridin-3-yl]acetamide] | C (C represents a 1% to 20% reduction in CHOP signal)
10 | Cc1ccc(OCC(=O)Nc2cnc(NC(=O)COc3ccc(C)cc3)c(Br)c2)cc1 [Compound B6, 2-(4-Methylphenoxy)-N-[5-bromo-6-[[2-(4-methylphenoxy)acetyl]amino]pyridin-3-yl]acetamide] | C (C represents a 1% to 20% reduction in CHOP signal)
11 | CC(C)(C)c1ccc(OCC(=O)Nc2cnc(NC(=O)COc3ccc(C(C)(C)C)cc3)c(Br)c2)cc1 [Compound B7, 2-(4-tert-Butylphenoxy)-N-[5-bromo-6-[[2-(4-tert-butylphenoxy)acetyl]amino]pyridin-3-yl]acetamide] | B (B represents a 20% to 50% reduction in CHOP signal)
12 | Cc1cc(NC(=O)COc2ccccc2)ccc1NC(=O)COc1ccccc1 [Compound C1, 2-Phenoxy-N-[2-methyl-4-(2-phenoxyacetylamino)phenyl]acetamide] | B (B represents a 20% to 50% reduction in CHOP signal)
13 | Cc1cc(NC(=O)COc2ccc(Cl)cc2)ccc1NC(=O)COc1ccc(Cl)cc1 [Compound C2, 2-(4-Chlorophenoxy)-N-[2-methyl-4-[[2-(4-chlorophenoxy)acetyl]amino]phenyl]acetamide] | A (A represents a greater than 50% reduction in CHOP signal in compound-treated versus untreated cells)
14 | O=C(COc1ccccc1)Nc1ccc(NC(=O)COc2ccccc2)c(Cl)c1 [Compound C5, 2-Phenoxy-N-[2-chloro-4-(2-phenoxyacetylamino)phenyl]acetamide] | B (B represents a 20% to 50% reduction in CHOP signal)
15 | O=C(COc1ccc(Cl)cc1)Nc1ccc(NC(=O)COc2ccc(Cl)cc2)c(Cl)c1 [Compound C6, 2-(4-Chlorophenoxy)-N-[2-chloro-4-[[2-(4-chlorophenoxy)acetyl]amino]phenyl]acetamide] | A (A represents a greater than 50% reduction in CHOP signal in compound-treated versus untreated cells)
16 | Cc1ccc(OCC(=O)Nc2ccc(NC(=O)COc3ccc(C)cc3)c(Cl)c2)cc1 [Compound C7, N,N′-2-Chlorobenzene-1,4-diylbis[2-(4-methylphenoxy)acetamide]] | C (C represents a 1% to 20% reduction in CHOP signal)
17 | CC(C)(C)c1ccc(OCC(=O)Nc2ccc(NC(=O)COc3ccc(C(C)(C)C)cc3)c(Cl)c2)cc1 [Compound C8, N,N′-2-Chlorobenzene-1,4-diylbis[2-(4-tert-butylphenoxy)acetamide]] | B (B represents a 20% to 50% reduction in CHOP signal)

Tested on: hearing loss from noise exposure
Test: not given
Settings: after a transient threshold shift; cited from earlier work

Row | SMILES | cochlear synaptopathy after a transient threshold shift
18 | O=C(COc1ccc(Cl)cc1)NC1CCC(NC(=O)COc2ccc(Cl)cc2)CC1 (stereo not shown) [ISRIB] | can prevent cochlear synatopathy after a transient threshold shift

Same assay, conditions: mice, noise exposure; cited from earlier work

Row | SMILES | hearing loss from noise exposure (permanent threshold shift)
19 | O=C(COc1ccc(Cl)cc1)NC1CCC(NC(=O)COc2ccc(Cl)cc2)CC1 (stereo not shown) [ISRIB] | can prevent hearing loss in mice from noise exposure
